The test system of experiment [1] is BJ. The experiment is described as follows: cells. Format: functional, cell-based. Particulars: Homo sapiens.
A short description of experiment [2]: Intein inhibitors as potential Tuberculosis drugs, a cytotoxicity screen. [Related pubchem assays (depositor defined):AID2221, AID2223, AID434968, AID435010, AID449749, AID449750, AID489010]. In kind it is functional.
Experiment [3] relates to BJ. The experiment is described as follows: BJ-TERT fibroblast viability loss – cell-based, RAS-independent, luminescence, dose response (AID 1933). In kind it is functional. The settings on record: Homo sapiens.
Experiment [4] deals with T1, Sentrin-specific protease 8 (Homo sapiens, UniProt Q96LD8).
T1 sequence (Q96LD8 whole entry): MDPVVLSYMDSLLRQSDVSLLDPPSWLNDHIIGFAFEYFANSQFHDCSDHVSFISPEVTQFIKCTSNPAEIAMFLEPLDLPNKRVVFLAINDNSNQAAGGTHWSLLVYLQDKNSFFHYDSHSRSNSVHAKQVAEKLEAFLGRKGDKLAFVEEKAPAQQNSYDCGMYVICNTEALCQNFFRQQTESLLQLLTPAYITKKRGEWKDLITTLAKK
The experiment can be described thus: inhibition of human SENP8 cleavage activity – biochemical, luminescence, SAR follow-up (AID 504501). Format: functional.

Another experiment concerns the target T2, Caspase-3 (Homo sapiens, UniProt P42574).
T2 sequence (P42574 whole entry): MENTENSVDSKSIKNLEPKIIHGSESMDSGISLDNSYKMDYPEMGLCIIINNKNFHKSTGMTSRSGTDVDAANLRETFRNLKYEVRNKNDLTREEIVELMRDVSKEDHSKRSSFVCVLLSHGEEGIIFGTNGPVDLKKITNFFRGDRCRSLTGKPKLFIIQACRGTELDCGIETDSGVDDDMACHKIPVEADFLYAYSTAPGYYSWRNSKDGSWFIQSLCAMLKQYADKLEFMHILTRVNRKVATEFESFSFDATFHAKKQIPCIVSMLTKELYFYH
The experiment can be described thus: inhibition of recombinant caspase-3 activity – biochemical, luminescence, set 2, selectivity assay for SENP protease inhibitor project, SAR follow-up (AID 588599). In kind it is functional.

Another experiment has as its target Nonstructural protein 1 (Influenza A virus, UniProt Q194T2). Format: functional, Influenza A virus (A/California/07/2009(H1N1)).
Experiment [5] addresses T3, Hexokinase HKDC1 (Homo sapiens, UniProt Q2TB90).
T3 sequence (Q2TB90 whole entry): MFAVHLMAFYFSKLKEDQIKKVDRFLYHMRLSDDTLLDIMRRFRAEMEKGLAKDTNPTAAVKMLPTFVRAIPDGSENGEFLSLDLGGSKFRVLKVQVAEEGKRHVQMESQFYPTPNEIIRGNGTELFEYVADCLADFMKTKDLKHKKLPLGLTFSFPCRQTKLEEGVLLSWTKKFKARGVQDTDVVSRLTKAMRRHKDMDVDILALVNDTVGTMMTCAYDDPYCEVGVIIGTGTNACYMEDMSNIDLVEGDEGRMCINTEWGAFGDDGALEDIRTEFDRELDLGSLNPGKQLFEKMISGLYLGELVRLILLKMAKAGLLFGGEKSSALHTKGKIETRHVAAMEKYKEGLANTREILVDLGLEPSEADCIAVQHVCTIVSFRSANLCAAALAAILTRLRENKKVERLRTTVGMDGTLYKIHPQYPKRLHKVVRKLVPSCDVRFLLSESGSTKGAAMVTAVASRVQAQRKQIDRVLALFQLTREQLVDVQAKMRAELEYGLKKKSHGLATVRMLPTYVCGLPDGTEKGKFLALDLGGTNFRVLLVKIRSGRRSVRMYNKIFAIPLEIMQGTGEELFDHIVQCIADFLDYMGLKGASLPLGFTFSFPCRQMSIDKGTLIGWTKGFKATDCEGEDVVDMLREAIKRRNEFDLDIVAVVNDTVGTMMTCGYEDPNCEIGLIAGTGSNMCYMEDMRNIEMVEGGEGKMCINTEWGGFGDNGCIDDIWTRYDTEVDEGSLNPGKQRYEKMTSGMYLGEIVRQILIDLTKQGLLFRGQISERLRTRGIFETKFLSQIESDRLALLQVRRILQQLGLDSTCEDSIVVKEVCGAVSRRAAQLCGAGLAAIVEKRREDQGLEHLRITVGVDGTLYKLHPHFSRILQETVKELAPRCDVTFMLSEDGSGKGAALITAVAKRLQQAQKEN
The experiment is described as follows: SAR analysis of small molecule inhibitors of hexokinase domain containing I (HKDC1). [Related pubchem assays (depositor defined):AID493160, AID493190]. Format: functional.

Experiment [6] addresses Polyadenylate-binding protein 1 (Homo sapiens, UniProt P11940). The experiment is described as follows: MLLE binding blockers, Cy5 peptide tracer – biochemical, fluorescence polarization, Cy5-PAM2 peptide, secondary, miRNA deadenylation inhibitor project, dose response (AID 602260). Particulars: read-out: IC50_Mean. Format: functional.
Experiment [7] deals with T3, Hexokinase HKDC1. The experiment is described as follows: inhibition of HKDC1 glucose phosphorylation – biochemical, W721R variant, dose response (AID 504729). In kind it is functional.
The target in experiment [8] is T4, Zinc finger protein mex-5 (Caenorhabditis elegans, UniProt Q9XUB2).
T4 sequence (Q9XUB2 whole entry): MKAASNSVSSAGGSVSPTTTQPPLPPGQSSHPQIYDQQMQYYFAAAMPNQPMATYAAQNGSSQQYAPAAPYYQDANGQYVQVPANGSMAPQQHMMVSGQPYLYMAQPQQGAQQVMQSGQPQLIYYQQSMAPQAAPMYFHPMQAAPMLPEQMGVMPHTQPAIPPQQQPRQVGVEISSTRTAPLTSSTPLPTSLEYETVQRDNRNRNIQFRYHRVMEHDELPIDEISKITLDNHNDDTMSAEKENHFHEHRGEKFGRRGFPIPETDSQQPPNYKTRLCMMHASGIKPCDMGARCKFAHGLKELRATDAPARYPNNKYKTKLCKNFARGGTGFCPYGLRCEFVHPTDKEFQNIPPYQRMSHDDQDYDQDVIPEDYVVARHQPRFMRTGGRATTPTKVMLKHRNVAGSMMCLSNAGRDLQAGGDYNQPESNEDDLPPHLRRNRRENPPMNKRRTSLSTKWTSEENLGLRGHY
The experiment is described as follows: potency of MEX-5 RNA-binding blockers – biochemical, C. elegans, fluorescence polarization, dose response (AID 1960). On the technique in general: Polarisation of emitted light reports the rotation of a fluorescent probe.

Experiment [9] has as its target T1, Sentrin-specific protease 8. Format: functional.
Another experiment addresses T5, Caspase-6 (Homo sapiens, UniProt P55212).
T5 sequence (P55212 whole entry): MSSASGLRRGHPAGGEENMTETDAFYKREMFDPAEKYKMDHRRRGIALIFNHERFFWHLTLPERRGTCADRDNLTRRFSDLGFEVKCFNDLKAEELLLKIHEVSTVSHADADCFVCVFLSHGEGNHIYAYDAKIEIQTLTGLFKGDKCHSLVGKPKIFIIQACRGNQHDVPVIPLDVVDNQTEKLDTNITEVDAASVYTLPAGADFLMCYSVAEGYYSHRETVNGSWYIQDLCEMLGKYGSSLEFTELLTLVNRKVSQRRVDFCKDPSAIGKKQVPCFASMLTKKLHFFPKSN
The experiment can be described thus: inhibition of CASP6 peptide cleavage – biochemical, VEID-R110 fluorescence, cherry-pick, dose response (AID 720632).

Calls of active or inactive are those of the source. Bounds are passed on as bounds.
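Wherever CC50 is given: cells exposed to compound for 72 hours before luminescence readout.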

Chain of Nonstructural protein 1 (Q194T2 whole entry): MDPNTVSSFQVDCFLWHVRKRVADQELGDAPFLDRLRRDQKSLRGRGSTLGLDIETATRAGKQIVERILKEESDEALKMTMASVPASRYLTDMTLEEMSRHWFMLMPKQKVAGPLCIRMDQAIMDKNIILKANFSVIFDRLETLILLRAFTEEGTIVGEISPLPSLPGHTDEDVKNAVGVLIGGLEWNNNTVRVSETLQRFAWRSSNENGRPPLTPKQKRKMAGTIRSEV
Chain of Polyadenylate-binding protein 1 (P11940 whole entry): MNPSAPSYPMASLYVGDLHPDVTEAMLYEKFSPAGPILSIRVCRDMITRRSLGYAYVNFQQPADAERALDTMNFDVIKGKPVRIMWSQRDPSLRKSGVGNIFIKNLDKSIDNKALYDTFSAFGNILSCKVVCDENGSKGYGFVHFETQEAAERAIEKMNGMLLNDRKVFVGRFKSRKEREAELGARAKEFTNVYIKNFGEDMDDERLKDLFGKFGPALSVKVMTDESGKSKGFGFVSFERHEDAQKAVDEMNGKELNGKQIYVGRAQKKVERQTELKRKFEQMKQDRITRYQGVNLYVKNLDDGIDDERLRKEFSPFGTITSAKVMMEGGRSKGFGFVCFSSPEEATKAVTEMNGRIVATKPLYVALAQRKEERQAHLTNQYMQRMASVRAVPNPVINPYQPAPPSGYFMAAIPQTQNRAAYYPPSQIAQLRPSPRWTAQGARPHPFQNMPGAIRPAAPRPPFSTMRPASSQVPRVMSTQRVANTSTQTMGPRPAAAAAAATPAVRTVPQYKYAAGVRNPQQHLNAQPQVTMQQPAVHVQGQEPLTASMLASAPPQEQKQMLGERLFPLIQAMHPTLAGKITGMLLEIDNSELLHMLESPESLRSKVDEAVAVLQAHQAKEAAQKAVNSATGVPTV

On to `Cc1nn(-c2ccccc2)c(Cl)c1CN(C(=O)CCl)c1ccc(Cl)cc1`, for which the EC50 in the experiment with BJ [1] is 2.82 µM (inconclusive); in the experiment on BJ [3], 0.707 µM (inconclusive). Further, in experiment [2], the half-maximal cytotoxic concentration (CC50) is 2.06 µM (active).
As for `Oc1ccccc1/C=C/c1noc(-c2ccccc2O)n1`, the IC50 (in [4]; on Caspase-3) was > 99 µM (inactive) each time.
Turning to `Cc1cccc(N=Nc2ccc(N(C)C)cc2)c1`, the IC50 at Nonstructural protein 1 was 31.6 µM (active).
For `O=C(O)CSc1cc(NS(=O)(=O)c2ccc(Cl)cc2)c2ccccc2c1O`, the IC50 on Hexokinase HKDC1 [5] was 8.9 µM (active); in [6], > 66 µM (inactive); at Hexokinase HKDC1 [7], 4.67 µM (active). In [8], the EC50 is 6.3 µM (active).
As to `COc1ccccc1N1C(=O)Cc2ccccc2C1=O`, the IC50 in experiment [9] is > 100 µM (inactive). The AC50 at Caspase-6 was 24.2 µM (active).

For orientation: EC50 means the concentration needed to bring the measured effect to its halfway point. As usually defined, the CC50 is the concentration giving 50% cytotoxicity. As usually defined, the AC50 is the midpoint of the concentration-response curve, whichever way the signal moves.

These data come from ChEMBL document CHEMBL1201862, “PubChem BioAssay data set” (2004).
